44 molecules from US12012411B2, “Viral replication inhibitors” (Katholieke Universiteit Leuven, priority 2011, dated 2024) can be followed below.

The test system of one data set is DENV-2 NGC. Nature of the data set: Antiviral activity against DENV-2 NGC in Vero-B cells (viral RNA load by RT-qPCR). In kind it is cell-based, Dengue virus. The settings on record: Dengue virus, DENV2, Vero B, DENV-2 in Vero-B cells; inhibition of viral RNA replication by 50% (Table 3).
The next data set can be described thus: in vitro. To be noted: African green monkey; for CC50 at 4 days: uninfected quiescent Vero-B cells.

With `COc1cccc(NC(C(=O)c2c[nH]c3cc(C(=O)O)ccc23)c2ccccc2)c1` (stereo not shown) [CPD-135], the midpoint of the response in the data set on DENV-2 NGC, the EC50, lay at 40.7 µM. In addition, the CC50 at 4 days in “in vitro” is greater than 124 µM.

The molecule `COc1cc(NC(C(=O)c2c[nH]c3cc(Cl)ccc23)c2cn3ccccc3n2)ccn1` (stereo not shown) [CPD-069] had an EC50 in the data set on DENV-2 NGC of 2.13 µM. The CC50 at 4 days in “in vitro” stood at 71 µM.

`COc1cccc(NC(C(=O)c2cn(CCN(C)C)c3ccccc23)c2ccccc2)c1` (stereo not shown) [CPD-114] returned an EC50 with DENV-2 NGC of 1.1 µM. Besides, in the data set “in vitro”, the CC50 was 52 µM.

`CN(Cc1ccco1)C(C(=O)c1c[nH]c2ccccc12)c1ccccc1` (stereo not shown) [CPD-189]: in the data set on DENV-2 NGC, the EC50 was found to be 0.93 µM. In addition, the CC50 at 4 days in “in vitro” is greater than 145 µM.

`COc1cccc(NC(C(=O)c2c[nH]c3ccccc23)c2ccc(CN(C)C)cc2)c1` (stereo not shown) [CPD-124] displayed an EC50 in the data set with DENV-2 NGC of 0.56 µM. The molecule also yielded a CC50 at 4 days in the data set “in vitro” of 3 µM.

Regarding `CCOc1cccc(NC(C(=O)c2c[nH]c3ccccc23)c2ccccc2)c1` (stereo not shown) [CPD-003], in the data set on DENV-2 NGC, it took 0.11 µM to reach a half-maximal effect (EC50). In “in vitro”, the CC50 at 4 days amounted to 13 µM.

For the molecule `COc1cc(NC(C(=O)c2c[nH]c3ccccc23)c2ccc3[nH]ccc3c2)ccn1` (stereo not shown) [CPD-097], the midpoint of the response in the data set on DENV-2 NGC, the EC50, lay at 2.32 µM. This molecule showed a CC50 at 4 days in “in vitro” of 12 µM.

With `COc1cccc(NC(C(=O)c2cn(CCN3CCOCC3)c3ccccc23)c2ccccc2)c1` (stereo not shown) [CPD-216], the midpoint of the response with DENV-2 NGC, the EC50, lay at 0.84 µM. Moreover, the CC50 in the data set “in vitro” was greater than 106 µM.

As for `COc1cccc(NC(C(=O)c2c[nH]c3ccccc23)c2ccc(C#N)c(F)c2)c1` (stereo not shown) [CPD-132], the EC50 in the data set with DENV-2 NGC amounted to 0.05 µM. This molecule yielded a CC50 at 4 days in “in vitro” of 12 µM.

`O=C(c1c[nH]c2ccccc12)C(NCc1cccs1)c1ccccc1` (stereo not shown) [CPD-033]: the EC50 with DENV-2 NGC amounted to 9.15 µM. The molecule further had a CC50 at 4 days in the data set “in vitro” of 71 µM.

In turn, `COc1cccc(NC(C(=O)c2c[nH]c3c(C)cccc23)c2ccccc2)c1` (stereo not shown) [CPD-224] had an EC50 with DENV-2 NGC of 0.05 µM. In addition, the CC50 at 4 days in the data set “in vitro” was greater than 134 µM.

Molecule `CCOC(=O)Cn1cc(C(=O)C(Nc2cccc(OC)c2)c2ccccc2)c2ccccc21` (stereo not shown) [CPD-113] yielded an EC50 in the data set on DENV-2 NGC of 0.49 µM. This molecule showed a CC50 in “in vitro” greater than 112 µM.

Turning to `COc1cc(NC(C(=O)c2c[nH]c3ccccc23)c2ccccc2)ccc1F` (stereo not shown) [CPD-356], the response in the data set with DENV-2 NGC was half-maximal at 0.12 µM (EC50). The molecule further returned a CC50 at 4 days in “in vitro” of 13 µM.

Consider `O=C(c1c[nH]c2ccccc12)C(NC1CCOc2ccccc21)c1ccccc1` (stereo not shown) [CPD-182], for which, in the data set with DENV-2 NGC, the EC50 came to 3.01 µM. In “in vitro”, the CC50 at 4 days came to 12 µM.

For the molecule `COc1cccc(NC(C(=O)c2c[nH]c3ccccc23)c2ccc(O)nc2)c1` (stereo not shown) [CPD-063], the EC50 in the data set with DENV-2 NGC turned out to be 14.3 µM. In addition, in the data set “in vitro”, the CC50 at 4 days is greater than 134 µM.

With `COc1cccc(NC(C(=O)c2c[nH]c3cccc(C)c23)c2ccccc2)c1` (stereo not shown) [CPD-251], the EC50 with DENV-2 NGC came out at 0.07 µM. For the same molecule, the CC50 at 4 days in “in vitro” was 14 µM.

Consider `COc1cccc(NC(C(=O)c2c[nH]c3ccccc23)c2nccn2C)c1` (stereo not shown) [CPD-026], for which the EC50 with DENV-2 NGC was 17.2 µM. In the data set “in vitro”, this molecule returned a CC50 at 4 days greater than 138 µM.

In the data set with DENV-2 NGC, `COc1cccc(NC(C(=O)c2c[nH]c3ccccc23)c2cn3ccc(C)cc3n2)c1` (stereo not shown) [CPD-096] yielded an EC50 of 2.9 µM. Moreover, the CC50 at 4 days in “in vitro” was greater than 121 µM.

In the data set on DENV-2 NGC, `O=C(c1c[nH]c2ccccc12)C(Nc1ccnc(F)c1)c1ccccc1` (stereo not shown) [CPD-207] yielded an EC50 of 3.83 µM. The same molecule showed a CC50 at 4 days in the data set “in vitro” of 16 µM.

`COc1cccc(NC(C(=O)c2c[nH]c3ccccc23)c2cc3n(n2)CCOC3)c1` (stereo not shown) [CPD-311]: a half-maximal effect with DENV-2 NGC (EC50) was put at 2.58 µM. The molecule further had a CC50 at 4 days in “in vitro” of 77 µM.

Turning to `COc1ccc2[nH]cc(C(=O)C(Nc3ccnc(OC)c3)c3ccccc3)c2c1` (stereo not shown) [CPD-078], the EC50 in the data set with DENV-2 NGC was found to be 11.6 µM. In “in vitro”, this molecule returned a CC50 at 4 days of 109 µM.

In the data set on DENV-2 NGC, `COc1cccc(NC(C(=O)c2c[nH]c3ccccc23)c2cccc3cnccc23)c1` (stereo not shown) [CPD-047] gave an EC50 of 0.42 µM. For the same molecule, the CC50 at 4 days in “in vitro” turned out to be 16 µM.

Regarding `COc1cccc(NC(C(=O)c2n[nH]c3ccccc23)c2ccccc2)c1` (stereo not shown) [CPD-198], the response in the data set with DENV-2 NGC was half-maximal at 0.14 µM (EC50). Also, the CC50 at 4 days in “in vitro” was 16 µM.

For `CCOc1ccc(C(Nc2cccc(OC)c2)C(=O)c2c[nH]c3ccccc23)cn1` (stereo not shown) [CPD-250], in the data set with DENV-2 NGC, the EC50 is 0.22 µM. Moreover, the CC50 at 4 days in the data set “in vitro” is 15 µM.

In the data set on DENV-2 NGC, `COc1cccc(NC(C(=O)c2c[nH]c3ccccc23)c2cnn(C)c2)c1` (stereo not shown) [CPD-042] had an EC50 of 12.5 µM. This molecule yielded a CC50 at 4 days in the data set “in vitro” greater than 138 µM.

The molecule `CCS(=O)(=O)n1cc(C(=O)C(Nc2cccc(OC)c2)c2ccccc2)c2ccccc21` (stereo not shown) [CPD-211] came in with an EC50 in the data set on DENV-2 NGC of 2.83 µM. Further, in “in vitro”, the CC50 at 4 days is greater than 111 µM.

Take `CCCN1CCC(NC(C(=O)c2c[nH]c3ccccc23)c2ccccc2)CC1` (stereo not shown) [CPD-184]: in the data set on DENV-2 NGC, the EC50 was 22.4 µM. Moreover, the CC50 at 4 days in “in vitro” was 70 µM.

For `O=C(c1c[nH]c2ccccc12)C(Nc1cccc(N2CCCC2=O)c1)c1ccccc1` (stereo not shown) [CPD-181], in the data set with DENV-2 NGC, the midpoint of the response, the EC50, lay at 4.22 µM. The same molecule gave a CC50 at 4 days in the data set “in vitro” greater than 122 µM.

In the data set with DENV-2 NGC, `COc1cc(NC(C(=O)c2c[nH]c3c(Cl)cccc23)c2ccccc2)ccn1` (stereo not shown) [CPD-101] gave an EC50 of 4.9 µM. In addition, the CC50 at 4 days in the data set “in vitro” came out at 11 µM.

`O=C(c1c[nH]c2ccccc12)C(NCc1ccco1)c1ccccc1` (stereo not shown) [CPD-034] had an EC50 with DENV-2 NGC of 46.5 µM. The same molecule registered a CC50 at 4 days in “in vitro” greater than 151 µM.

The molecule `CCc1cncc(NC(C(=O)c2c[nH]c3ccccc23)c2ccccc2)c1` (stereo not shown) [CPD-248] gave an EC50 in the data set on DENV-2 NGC of 0.56 µM. The molecule further displayed a CC50 at 4 days in the data set “in vitro” of 15 µM.

`COc1cccc(NC(C(=O)c2cccc3[nH]ccc23)c2ccccc2)c1` (stereo not shown) [CPD-302] returned an EC50 in the data set with DENV-2 NGC of 0.65 µM. The CC50 at 4 days in “in vitro” was 15 µM.

Turning to `CCOC(=O)CCCOc1cc(NC(C(=O)c2c[nH]c3ccccc23)c2ccccc2)cc(OC)c1` (stereo not shown) [CPD-367], in the data set on DENV-2 NGC, the response was half-maximal at 0.04 µM (EC50). This molecule also registered a CC50 at 4 days in “in vitro” greater than 103 µM.

In the data set on DENV-2 NGC, `COc1cccc(NC(C(=O)c2cn(C)c3ccccc23)c2cc(C)on2)c1` (stereo not shown) [CPD-117] displayed an EC50 of 3.57 µM. For the same molecule, the CC50 at 4 days in “in vitro” is greater than 133 µM.

For `CCn1nccc1C(Nc1cccc(OC)c1)C(=O)c1c[nH]c2ccccc12` (stereo not shown) [CPD-107], it took 7.88 µM to reach a half-maximal effect with DENV-2 NGC (EC50). This molecule also yielded a CC50 at 4 days in the data set “in vitro” of 20 µM.

`COc1cccc(NC(C(=O)c2c[nH]c3ccccc23)c2cn3c(F)cccc3n2)c1` (stereo not shown) [CPD-109] returned an EC50 in the data set with DENV-2 NGC of 0.53 µM. In addition, the CC50 at 4 days in the data set “in vitro” came out at 84 µM.

As for `O=C(c1c[nH]c2ccccc12)C(Nc1cccc(C(F)(F)F)c1)c1ccccc1` (stereo not shown) [CPD-009], a half-maximal response in the data set on DENV-2 NGC (EC50) required 0.66 µM. The same molecule came in with a CC50 at 4 days in “in vitro” of 4 µM.

In turn, `COc1cccc(NC(C(=O)c2c[nH]c3ccccc23)c2cccc(C#N)c2)c1` (stereo not shown) [CPD-041] returned an EC50 with DENV-2 NGC of 0.5 µM. Further, the CC50 at 4 days in “in vitro” came out at 14 µM.

Turning to `COc1cccc(NC(C(=O)c2cnn3ccccc23)c2ccccc2)c1` (stereo not shown) [CPD-197], the EC50 with DENV-2 NGC was 3.3 µM. The molecule further came in with a CC50 at 4 days in “in vitro” greater than 139 µM.

On to `CCOc1ccc(NC(C(=O)c2c[nH]c3ccccc23)c2ccccc2)cc1CO` (stereo not shown) [CPD-192], for which the EC50 in the data set with DENV-2 NGC stood at 5.62 µM. This molecule returned a CC50 at 4 days in “in vitro” of 50 µM.

Molecule `COc1cccc(NC(C(=O)c2c[nH]c3ccccc23)c2ccc(CO)cc2)c1` (stereo not shown) [CPD-127] gave an EC50 in the data set on DENV-2 NGC of 2.15 µM. Further, the CC50 at 4 days in “in vitro” was determined as 72 µM.

Consider `O=C(c1c[nH]c2ccccc12)C(Nc1ccnc(O)c1)c1ccccc1` (stereo not shown) [CPD-031], for which the EC50 in the data set on DENV-2 NGC was determined as 50.2 µM. In “in vitro”, this molecule gave a CC50 at 4 days greater than 145 µM.

As to `COc1cncc(NC(C(=O)c2nn(C)c3ccccc23)c2ccccc2)c1` (stereo not shown) [CPD-259], the EC50 in the data set with DENV-2 NGC came out at 0.54 µM. This molecule returned a CC50 at 4 days in “in vitro” of 14 µM.

`COc1cccc(NC(C(=O)c2cn(S(=O)(=O)c3cn(C)cn3)c3ccccc23)c2ccccc2)c1` (stereo not shown) [CPD-209] displayed an EC50 with DENV-2 NGC of 1.12 µM. For the same molecule, the CC50 at 4 days in “in vitro” is greater than 100 µM.

As usually defined, the EC50 is the concentration needed to bring the measured effect to its halfway point.
